These results are taken from paper PMC6731595, “The anti-parasitic agent suramin and several of its analogues are inhibitors of the DNA binding protein Mcm10” (Open Biology, 2019).

As a reminder, the IC50 is the concentration at which inhibition is half-maximal. A lower IC50 goes with higher potency.

Entries after “also recorded” stand apart in the source; their conditions may differ. Where a name gives a salt, the structure may show the parent alone.

Assay [1] has as its system DNA replication of sperm chromatin in Xenopus egg extracts. In words: In vitro DNA replication assay in Xenopus S-phase egg extracts ([α-32P]dGTP incorporation). Type of assay: biochemical. To be noted: 10, 50, 150 and 300 µM. On the procedure:
Xenopus egg extracts were prepared according to the method of Murray. Replication of sperm chromatin in S-phase egg extracts was monitored as previously described. Compounds identified by HTS were added to replication reactions immediately prior to addition of [α-^32P]dGTP (Perkin Elmer BLU514H250UC).
To determine whether the four remaining confirmed HTS hits affected DNA replication, in vitro replication assays were performed using Xenopus S-phase egg extracts incubated with sperm chromatin [25, 34]. DNA replication was measured in the presence of bronopol, fumarprotocetraric acid, iriginol and suramin or DMSO by the incorporation of [α-^32P]dGTP. […] For this reason, further studies focused on suramin alone.
Figure 1. Suramin inhibits DNA replication in an in vitro Xenopus replication assay. HTS hits were evaluated for inhibition of [α-^32P]dGTP incorporation into DNA using a cell-free extract prepared from Xenopus eggs at increasing concentrations (10, 50, 150 and 300 µM indicated by black triangle from right to left). No chemical (–) and DMSO were used as negative controls for replication inhibition (far left and far right lanes).

The test system of a further assay is hTERT RPE-1 cells. Put plainly: CellTiter-Glo cell viability assay, hTERT RPE-1. Type of assay: cell-based. To be noted: Homo sapiens, hTERT-RPE1, 96 h; 4 days, intracellular ATP; mean ± s.e.m., n = 3. On the procedure:
HCT116 cells were grown in McCoy's 5A medium (Corning 10-050-CV) supplemented with 10% FBS (Sigma F4135), 1% Pen Strep (Gibco 15140) and 1% L-Glutamine (Gibco 205030). hTERT RPE-1 cells were grown in DMEM/F12 medium (Gibco 11320) supplemented with 10% FBS (Sigma F4135) and 1% Pen Strep (Gibco 15140). Cells were cultured at 37°C and 5% CO2. Cells were plated at 250 cells (hTERT RPE-1) or 500 cells (HCT116) per well in white-walled 96-well plates (Costar 3610) and allowed to recover for 24 h. Stock solutions of each inhibitor were prepared in sterile 1× PBS (Gibco 14190), and further diluted in the appropriate growth medium for each cell type. Cells were allowed to grow for 4 days in inhibitor containing medium and cell viability was measured with the CellTiter-Glo Luminescent Cell Viability Assay (Promega G7572) following the manufacturer's instructions. Viability of each drug treatment condition was normalized to the untreated control for each cell line and fitted to the sigmoidal dose–response variable slope four parameter equation in GraphPad Prism 6.0.
(In general: Cellular ATP, detected with luciferase, serves as a proxy for viable cell number.)

In the case of `Cc1ccc(C(=O)Nc2ccc(S(=O)(=O)O)c3cc(S(=O)(=O)O)cc(S(=O)(=O)O)c23)cc1NC(=O)c1cccc(NC(=O)Nc2cccc(C(=O)Nc3cc(C(=O)Nc4ccc(S(=O)(=O)O)c5cc(S(=O)(=O)O)cc(S(=O)(=O)O)c45)ccc3C)c2)c1` [suramin, suramin sodium salt], in assay [1], the “DNA replication, [α-32P]dGTP incorporation (result in words)” value is recorded as “dose-dependent decrease in replication products; also recorded: dose-dependent decrease in DNA replication”. For the same compound, the IC50 in the assay on hTERT RPE-1 cells turned out to be 400 ± 22 µM.

Regarding `Cc1nc(/N=N/c2cc(S(=O)(=O)O)ccc2S(=O)(=O)O)c(COP(=O)(O)O)c(C=O)c1O` [iso-PPADS, pyridoxalphosphate-6-azophenyl-2’, 5’-disulfonic acid tetrasodium salt], half-maximal inhibition in the assay with hTERT RPE-1 cells (IC50) was put at 560 ± 55 µM.

In the assay with hTERT RPE-1 cells, `O=C(Nc1cccc(C(=O)Nc2cc(C(=O)Nc3ccc(S(=O)(=O)O)c4cc(S(=O)(=O)O)cc(S(=O)(=O)O)c34)ccc2F)c1)Nc1cccc(C(=O)Nc2cc(C(=O)Nc3ccc(S(=O)(=O)O)c4cc(S(=O)(=O)O)cc(S(=O)(=O)O)c34)ccc2F)c1` [NF157] had an IC50 of 120 ± 16 µM.

On to `Cc1nc(/N=N/c2ccc(S(=O)(=O)O)cc2S(=O)(=O)O)c(COP(=O)(O)O)c(C=O)c1O` [PPADS, pyridoxalphosphate-6-azophenyl-2’, 4’-disulfonic acid tetrasodium salt], for which, in the assay on hTERT RPE-1 cells, the midpoint of inhibition, the IC50, lay at 400 ± 14 µM.
